Measured values taken from ChEMBL document CHEMBL1201862, “PubChem BioAssay data set” (2004).
Activity calls are given as the source filed them.

Tests used:
[1] = blockade of melanocortin 4 receptor signaling – cell-based, plate reader, cherry pick, counter-screen for LGR2 antagonist project, dose response (AID 743444); assay type: functional;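 further: transfected HEK 293 cells stimulated with alpha-MSH peptide; potency of inhibitors of the alpha-MSH evoked signal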
[2] = blockers of bursicon-stimulated LGR2 cAMP reporter – cell-based, HEK293, CRE-luciferase reporter, cherry pick, set 2, dose response (AID 743343); assay type: functional;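 further: transfected cells were stimulated with diluted bursicon conditioned medium after compound addition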
HEK293 = assay: EBV LMP1 TES2 canonical NF-kB signalling blockers – cell-based, HEK293, luciferase, cherry-pick, dose response (AID 588343); assay type: functional; conditions: Homo sapiens
[3] = target: T1, Carboxy-terminal domain RNA polymerase II polypeptide A small phosphatase 1 (Homo sapiens, UniProt Q9GZU7); assay: CTDSP1 inhibitors, concentration-response, biochemical, absorbance readout, ultra-high-throughput screen actives (AID 540297); assay type: functional
T1 sequence (Q9GZU7 whole entry): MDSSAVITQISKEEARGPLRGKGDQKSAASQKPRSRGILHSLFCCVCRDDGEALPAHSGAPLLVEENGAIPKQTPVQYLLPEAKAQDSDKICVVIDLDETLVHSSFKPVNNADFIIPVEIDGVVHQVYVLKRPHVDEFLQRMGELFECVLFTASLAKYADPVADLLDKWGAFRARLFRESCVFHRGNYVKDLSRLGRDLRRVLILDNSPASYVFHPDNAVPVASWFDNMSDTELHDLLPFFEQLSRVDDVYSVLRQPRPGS

[4] = reduction of Shn3 3'UTR-driven luciferase in osteoblasts – cell-based, Clone20 osteoblasts, firefly luciferase, cherry-picked, dose response (AID 624132); assay type: functional;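 further: firefly luciferase luminescence from reporter carrying the Shn3 3'UTR in osteoblasts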
Paired box protein Pax-8 = Paired box protein Pax-8 (Homo sapiens, UniProt Q06710); assay: PAX8 transcriptional activity inhibition in RMG-I – RMG-I cells, luciferase, cherry-pick, dose response (AID 687027); assay type: functional, cell-based;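 further: luciferase reporter driven by Pax8 target thyroperoxidase promoter measured by SteadyGlo luminescence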
Paired box protein Pax-8, sequence (Q06710 whole entry): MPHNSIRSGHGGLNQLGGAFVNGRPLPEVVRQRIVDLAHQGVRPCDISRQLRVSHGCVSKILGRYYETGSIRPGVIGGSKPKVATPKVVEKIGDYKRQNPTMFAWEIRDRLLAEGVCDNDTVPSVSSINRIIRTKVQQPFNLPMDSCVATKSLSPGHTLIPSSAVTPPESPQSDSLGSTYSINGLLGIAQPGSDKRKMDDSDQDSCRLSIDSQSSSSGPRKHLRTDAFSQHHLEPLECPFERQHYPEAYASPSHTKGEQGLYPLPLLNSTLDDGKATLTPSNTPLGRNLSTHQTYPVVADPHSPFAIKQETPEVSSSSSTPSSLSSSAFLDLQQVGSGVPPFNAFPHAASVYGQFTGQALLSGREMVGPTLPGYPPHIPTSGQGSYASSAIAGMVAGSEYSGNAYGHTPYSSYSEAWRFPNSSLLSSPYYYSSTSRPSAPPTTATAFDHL

[5] = loss of viability in HepG2 cells – cell-based, CellTiter-Glo, cherry-picked, cytotoxicity control for Shn3 inhibitor project, dose response (AID 624134); assay type: functional
[6] = general cell-killing toxicity readout – plate reader, dry powder samples, cytotoxicity control for PAX8 inhibitor project, dose response (AID 743021); assay type: functional, cell-based
[7] = Luminescence Cell-Based Dose Retest to Confirm Inhibitors of Cancer Stem Cells. [Related pubchem assays (depositor defined):AID2717, AID2721]; assay type: functional; conditions: Homo sapiens
Genome polyprotein = Genome polyprotein (dengue virus type 2, UniProt P29990); assay: flavivirus cap methylation enzyme inhibition – biochemical, confirmation dose response, primary screen (AID 588689); assay type: functional
Genome polyprotein, sequence (P29990 2492-3391 limits assumed): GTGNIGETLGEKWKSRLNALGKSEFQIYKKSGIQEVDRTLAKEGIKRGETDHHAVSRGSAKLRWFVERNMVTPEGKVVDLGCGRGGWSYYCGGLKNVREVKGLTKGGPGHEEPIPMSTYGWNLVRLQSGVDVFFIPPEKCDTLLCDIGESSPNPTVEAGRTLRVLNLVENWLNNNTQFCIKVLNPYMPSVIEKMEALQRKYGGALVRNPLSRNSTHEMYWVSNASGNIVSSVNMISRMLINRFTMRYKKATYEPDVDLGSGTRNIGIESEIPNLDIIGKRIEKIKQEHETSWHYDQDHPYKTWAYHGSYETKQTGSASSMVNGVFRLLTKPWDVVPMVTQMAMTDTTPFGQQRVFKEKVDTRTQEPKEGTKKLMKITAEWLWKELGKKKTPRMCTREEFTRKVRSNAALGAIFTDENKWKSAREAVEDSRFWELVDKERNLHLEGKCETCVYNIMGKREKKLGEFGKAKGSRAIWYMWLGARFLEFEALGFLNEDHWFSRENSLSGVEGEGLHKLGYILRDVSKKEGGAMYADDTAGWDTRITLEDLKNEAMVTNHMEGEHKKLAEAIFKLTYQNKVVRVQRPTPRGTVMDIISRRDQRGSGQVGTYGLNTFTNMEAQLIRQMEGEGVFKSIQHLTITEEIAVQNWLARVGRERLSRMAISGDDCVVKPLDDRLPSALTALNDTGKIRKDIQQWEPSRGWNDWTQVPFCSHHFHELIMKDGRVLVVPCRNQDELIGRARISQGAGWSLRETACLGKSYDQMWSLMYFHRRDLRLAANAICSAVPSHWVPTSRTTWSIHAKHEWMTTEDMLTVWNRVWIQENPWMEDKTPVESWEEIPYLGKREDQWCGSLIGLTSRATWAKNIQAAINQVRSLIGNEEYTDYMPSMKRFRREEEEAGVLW

Vero = assay: viability of Vero cells under compound – cytotoxicity control for flavivirus capping enzyme inhibitors (AID 588742); assay type: functional; conditions: Chlorocebus sabaeus
INS1 = assay: INS-1E survival protection against cytokine death – cell-based, luminescence, retest, dose response (AID 449756); assay type: functional; conditions: Rattus norvegicus;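 further: cell death triggered by IL-1 beta plus TNF-alpha plus IFN-gamma mixture; protective hits raise ATP signal compared with cytokine alone wells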
[8] = blockers of HIV-1 ZM109 envelope-driven cell-cell fusion – HeLa effector, CEM target cells, luciferase, cherry-pick, dose response (AID 652058); assay type: functional, cell-based;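 further: luciferase signal from HIV-1 Env mediated cell-cell fusion of effector and target cells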
[9] = HIV-1 AD8 envelope cell-cell fusion blockers – cherry-pick, dose response (AID 652062); assay type: functional, cell-based;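 further: luciferase signal from cell-cell fusion driven by HIV-1 clade B AD8 Env; potency is for inhibitors of fusion seen as a drop in luminescence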
Cytochrome P450 1A2 = target: T2, Cytochrome P450 1A2 (Homo sapiens, UniProt P05177);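 further: PubChem cytochrome P450 panel assay, CYP1A2 panel member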
T2 sequence (P05177 whole entry): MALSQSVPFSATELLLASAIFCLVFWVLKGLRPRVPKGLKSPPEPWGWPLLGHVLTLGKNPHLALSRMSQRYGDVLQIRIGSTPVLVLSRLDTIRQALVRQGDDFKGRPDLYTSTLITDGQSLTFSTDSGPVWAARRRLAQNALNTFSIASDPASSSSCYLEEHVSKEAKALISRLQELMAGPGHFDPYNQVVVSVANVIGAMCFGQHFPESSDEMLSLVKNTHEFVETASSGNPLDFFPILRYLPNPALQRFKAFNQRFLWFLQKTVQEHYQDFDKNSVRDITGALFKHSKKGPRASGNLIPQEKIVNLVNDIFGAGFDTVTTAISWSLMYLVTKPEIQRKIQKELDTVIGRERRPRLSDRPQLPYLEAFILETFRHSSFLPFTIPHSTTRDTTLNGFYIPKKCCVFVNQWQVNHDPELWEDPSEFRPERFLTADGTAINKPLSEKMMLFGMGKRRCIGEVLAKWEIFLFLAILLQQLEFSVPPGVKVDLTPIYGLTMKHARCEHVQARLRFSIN

[10] = blockers of HIV-1 envelope-mediated cell-cell fusion – cherry-pick, dose response (AID 652057); assay type: functional, cell-based
[11] = target: T3, Apoptotic protease-activating factor 1 (Homo sapiens, UniProt O14727); assay type: functional
T3 sequence (O14727 whole entry): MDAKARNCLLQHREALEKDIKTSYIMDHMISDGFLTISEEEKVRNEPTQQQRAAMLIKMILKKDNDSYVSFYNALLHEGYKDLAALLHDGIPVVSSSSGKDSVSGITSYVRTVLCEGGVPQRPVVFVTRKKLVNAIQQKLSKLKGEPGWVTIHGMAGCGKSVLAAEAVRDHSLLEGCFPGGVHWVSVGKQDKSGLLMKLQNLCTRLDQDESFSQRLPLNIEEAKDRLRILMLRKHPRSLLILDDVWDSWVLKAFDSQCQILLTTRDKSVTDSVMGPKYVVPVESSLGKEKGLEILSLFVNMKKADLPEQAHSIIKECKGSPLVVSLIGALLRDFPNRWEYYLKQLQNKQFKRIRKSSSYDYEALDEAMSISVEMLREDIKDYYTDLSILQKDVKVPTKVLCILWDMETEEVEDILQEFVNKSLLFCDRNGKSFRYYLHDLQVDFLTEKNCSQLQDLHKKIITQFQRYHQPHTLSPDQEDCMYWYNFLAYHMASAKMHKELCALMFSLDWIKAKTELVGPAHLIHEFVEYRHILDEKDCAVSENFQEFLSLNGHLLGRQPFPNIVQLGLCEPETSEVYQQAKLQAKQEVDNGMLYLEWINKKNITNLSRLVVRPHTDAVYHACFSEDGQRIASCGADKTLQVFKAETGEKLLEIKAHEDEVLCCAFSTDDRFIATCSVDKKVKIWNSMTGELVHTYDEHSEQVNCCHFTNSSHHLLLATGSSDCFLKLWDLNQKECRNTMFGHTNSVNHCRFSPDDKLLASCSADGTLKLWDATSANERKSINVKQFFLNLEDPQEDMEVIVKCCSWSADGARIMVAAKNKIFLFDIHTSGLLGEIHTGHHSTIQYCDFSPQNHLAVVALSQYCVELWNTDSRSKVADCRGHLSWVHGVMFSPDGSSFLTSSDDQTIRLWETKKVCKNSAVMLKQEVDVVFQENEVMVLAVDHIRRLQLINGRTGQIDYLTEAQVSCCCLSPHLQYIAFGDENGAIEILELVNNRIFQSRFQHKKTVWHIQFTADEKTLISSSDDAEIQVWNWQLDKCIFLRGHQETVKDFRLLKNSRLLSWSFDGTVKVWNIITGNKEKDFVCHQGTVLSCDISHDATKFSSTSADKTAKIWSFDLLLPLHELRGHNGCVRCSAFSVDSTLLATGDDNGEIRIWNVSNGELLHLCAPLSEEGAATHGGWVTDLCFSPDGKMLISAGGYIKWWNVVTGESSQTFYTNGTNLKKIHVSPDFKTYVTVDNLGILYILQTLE

Nonstructural protein 1 = Nonstructural protein 1 (Influenza A virus, UniProt Q194T2); assay type: functional, Influenza A virus (A/California/07/2009(H1N1))
Nonstructural protein 1, sequence (Q194T2 whole entry): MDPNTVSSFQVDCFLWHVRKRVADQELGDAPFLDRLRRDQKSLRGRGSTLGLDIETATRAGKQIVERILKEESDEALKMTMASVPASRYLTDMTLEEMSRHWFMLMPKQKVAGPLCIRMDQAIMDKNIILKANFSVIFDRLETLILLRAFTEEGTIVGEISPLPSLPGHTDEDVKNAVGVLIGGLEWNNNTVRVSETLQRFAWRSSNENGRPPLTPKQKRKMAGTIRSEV

Protein RecA = target: T4, Protein RecA (Mycobacterium tuberculosis, UniProt P9WHJ3); assay: Fluorescence Cell-Free Homogeneous Dose Retest to Identify Inhibitors of RecA-Intein Splicing Activity. [Related pubchem assays (depositor defined):AID2097, AID2223, AID489010, AID492950]; assay type: functional
T4 sequence (P9WHJ3 whole entry): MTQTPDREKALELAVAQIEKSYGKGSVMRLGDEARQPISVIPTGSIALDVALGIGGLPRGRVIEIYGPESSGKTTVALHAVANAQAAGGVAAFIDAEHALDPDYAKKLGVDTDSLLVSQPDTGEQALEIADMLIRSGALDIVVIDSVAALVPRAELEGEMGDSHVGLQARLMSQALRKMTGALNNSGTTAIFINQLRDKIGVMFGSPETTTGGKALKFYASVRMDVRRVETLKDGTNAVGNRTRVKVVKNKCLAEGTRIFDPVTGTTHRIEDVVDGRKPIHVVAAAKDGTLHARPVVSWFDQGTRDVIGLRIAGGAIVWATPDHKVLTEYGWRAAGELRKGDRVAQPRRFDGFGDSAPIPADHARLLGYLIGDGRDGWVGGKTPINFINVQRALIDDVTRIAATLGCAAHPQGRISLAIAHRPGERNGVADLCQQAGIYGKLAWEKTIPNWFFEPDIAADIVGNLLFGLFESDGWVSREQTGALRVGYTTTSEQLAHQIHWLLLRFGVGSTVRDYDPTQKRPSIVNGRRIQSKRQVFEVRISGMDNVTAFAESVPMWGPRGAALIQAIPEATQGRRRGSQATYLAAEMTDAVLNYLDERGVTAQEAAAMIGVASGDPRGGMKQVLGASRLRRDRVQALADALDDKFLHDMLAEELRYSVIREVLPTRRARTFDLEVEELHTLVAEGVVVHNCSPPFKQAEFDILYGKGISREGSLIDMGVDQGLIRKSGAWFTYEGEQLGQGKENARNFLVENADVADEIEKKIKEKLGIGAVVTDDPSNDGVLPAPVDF

[12] = target: T5, Replicative DNA helicase DnaB (Mycobacterium tuberculosis, UniProt P9WMR3); assay: DnaB intein splicing inhibitors, dose response, biochemical, cell-free fluorescence (AID 449749); assay type: functional
T5 sequence (P9WMR3 whole entry): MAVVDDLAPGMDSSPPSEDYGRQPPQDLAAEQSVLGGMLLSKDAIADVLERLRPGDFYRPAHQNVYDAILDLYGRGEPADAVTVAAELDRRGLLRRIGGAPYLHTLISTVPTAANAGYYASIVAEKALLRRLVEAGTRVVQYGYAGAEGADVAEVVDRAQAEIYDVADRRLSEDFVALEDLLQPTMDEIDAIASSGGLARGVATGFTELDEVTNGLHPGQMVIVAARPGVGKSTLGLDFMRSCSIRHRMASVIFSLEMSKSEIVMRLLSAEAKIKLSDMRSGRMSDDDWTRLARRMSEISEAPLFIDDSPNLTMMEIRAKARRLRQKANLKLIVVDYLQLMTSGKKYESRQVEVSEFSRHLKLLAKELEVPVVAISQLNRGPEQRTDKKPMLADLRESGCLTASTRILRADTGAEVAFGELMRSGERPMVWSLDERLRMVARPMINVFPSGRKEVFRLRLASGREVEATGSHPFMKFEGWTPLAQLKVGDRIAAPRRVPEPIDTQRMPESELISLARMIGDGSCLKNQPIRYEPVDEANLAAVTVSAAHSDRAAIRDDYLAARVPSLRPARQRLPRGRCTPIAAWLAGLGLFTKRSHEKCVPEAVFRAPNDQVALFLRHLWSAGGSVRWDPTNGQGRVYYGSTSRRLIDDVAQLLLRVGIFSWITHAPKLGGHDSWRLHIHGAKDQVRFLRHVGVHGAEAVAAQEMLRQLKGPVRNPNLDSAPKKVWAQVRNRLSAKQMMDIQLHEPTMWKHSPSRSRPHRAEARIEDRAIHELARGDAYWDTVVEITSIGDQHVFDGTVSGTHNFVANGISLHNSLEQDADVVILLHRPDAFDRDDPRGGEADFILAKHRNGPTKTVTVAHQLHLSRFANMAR

Compound: Cc1c(NC(=O)c2cccc(NC(=O)COc3ccccc3C#N)c2)c(=O)n(-c2ccccc2)n1C
- AC50 [1]: 4.53 µM (active)
- AC50 [2]: 2.66 µM (active)
- AC50 (HEK293): 5.77 µM (active)

Compound: c1ccc2c(c1)nc(N1CCCCCC1)c1ccccc12
- IC50 [3]: 17.4 µM (active)

Compound: O=c1cc(-c2ccc(O)cc2)oc2ccc3ccccc3c12
- AC50 [4]: 5.41 µM (active)
- AC50 (Paired box protein Pax-8): 8.88 µM (active)
- AC50 [5]: 41.6 µM (active)
- AC50 [6]: 31.3 µM (active)
- AC50 [7]: 2.15 µM (active)

Compound: c1coc(-c2nc3nc4ccccc4n3nc2-c2ccco2)c1
- IC50 (Genome polyprotein): 99.3 µM (active)
- CC50 (Vero): > 40 µM (active)

Compound: CCN(C1CCCCC1)S(=O)(=O)c1ccc(S(=O)(=O)NCc2ccncc2)cc1
- AC50 (INS1): 5.12 µM (active)
- AC50 [8]: 3.52 µM (active)
- AC50 [9]: 7.99 µM (active)
- AC50 (Cytochrome P450 1A2): 15.8 µM (inconclusive)

Compound: Cc1cccc(C(=O)Nc2ccc(C(=O)N/N=C/c3ccco3)cc2)c1
- IC50 [3]: 4.79 µM (active)

Compound: COc1ccc(S(=O)(=O)N(C)C[C@@H]2Oc3ccc(NC(=O)C4CCCCC4)cc3CC(=O)N([C@H](C)CO)C[C@@H]2C)cc1
- AC50 [8]: 2.96 µM (active)
- AC50 [10]: 0.574 µM (active)
- AC50 [9]: 4.51 µM (active)

Compound: Cc1cc(C(=O)N/N=C/c2c(C)nn(-c3ccccc3)c2O)[nH]n1
- IC50 [11]: 6.97 µM (active)
- IC50 (Nonstructural protein 1): 11.8 µM (active)
- EC50 (Protein RecA): 27 µM (active)
- AC50 [12]: 226 µM (active)
